Data from patent US5002948A, “3-[4-[4-substituted-1-piperazinyl]-1-butyl]-1H-2,3-dihydroindoles” (H. Lundbeck A/S, priority 1988, dated 1991).

Columns and labels:
[1] = biological target: T1, 5-HT1A (Rattus norvegicus, UniProt P19327); experiment: Generalization to discriminative stimulus properties induced by 8-OHDPAT in rats (agonism); assay type: in vivo, Male Wistar rats; design: from tissue; host or cells: whole living animal, male Wistar rats, s.c. dosing; conditions: usually 30 or 45 min before test, substituted for 8-OHDPAT, per cent drug response; for ED50: rat, sc, read-out: ED50, 8-OH DPAT cue agonism
T1 sequence (P19327 1-422): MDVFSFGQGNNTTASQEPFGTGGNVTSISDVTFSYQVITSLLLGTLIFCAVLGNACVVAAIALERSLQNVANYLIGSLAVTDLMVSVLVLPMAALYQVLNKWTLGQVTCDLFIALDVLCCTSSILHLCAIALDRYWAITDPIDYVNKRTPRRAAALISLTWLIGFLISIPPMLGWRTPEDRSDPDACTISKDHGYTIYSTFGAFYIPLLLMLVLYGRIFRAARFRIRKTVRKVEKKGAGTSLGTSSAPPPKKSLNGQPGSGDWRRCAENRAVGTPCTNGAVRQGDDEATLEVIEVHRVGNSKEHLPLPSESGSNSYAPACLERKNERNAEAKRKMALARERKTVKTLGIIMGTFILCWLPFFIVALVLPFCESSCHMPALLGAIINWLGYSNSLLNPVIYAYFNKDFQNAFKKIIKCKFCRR
Description: GENERALIZATION TO DISCRIMINATIVE STIMULUS PROPERTIES INDUCED BY 8-OHDPAT IN RATS.
This test model is used to determine the agonist effects of a test compound on 5-HT1A receptors in vivo. A related method is described by Tricklebank, M. D., J. Neill, E. J. Kidd and J. R. Fozard, Eur. J. Pharmacol. 133, 37-56, 1987; Arnt, J., Pharmacology & Toxicology 64, 165-172, 1989.
The procedure is the same as for the antagonism test mentioned above, except that the test compound is substituted for 8-OHDPAT and injected s.c. usually 30 minutes or 45 minutes respectively before beginning of the test.
The per cent drug response obtained for each dose of test compound is used to calculate ED50 values by log-probit analysis.

[2] = biological target: T1, 5-HT1A; experiment: Inhibition of 5-methoxy-N,N-dimethyltryptamine (5-MeODMT) induced 5-HT syndrome in rats; assay type: in vivo, Male Wistar rats; design: Male Wistar rats (Mol:Wist) weighing 170-240 g are used; from tissue; host or cells: whole living animal, male Wistar rats (Mol:Wist), s.c. dosing; conditions: 30 min before 5-MeODMT 5 mg/kg s.c., per cent inhibition of piano playing syndrome; for ED50: rat, sc
Description: INHIBITION OF 5-METHOXY-N,N-[…] INDUCED 5-HT SYNDROME IN RATS
The so-called 5-HT syndrome is a characteristic behaviour pattern which is induced by 5-HT agonists with effects on 5-HT, possibly 5-HT1A receptors, although lack of specific antagonists make it difficult to evaluate specificity (Smith, L. M. and S. J. Peroutka, Pharmacol. Biochem. & Behaviour 24, 1513-1519, 1986; Tricklebank, M. et al., Eur. J. Pharmacol. 117, 15-24, 1985).
Male Wistar rats (Mol:Wist) weighing 170-240 g are used. Test substrate is injected subcutaneously 30 min. before 5-methoxy-N,N-dimethyltryptamine 5 mg/kg, s.c. Four rats are used for each dose. A control group pretreated with saline is included each test day. Ten, 15 and 20 min later the rats are observed for presence of serotonin (5-HT) syndrome: (1) forepaw treading ("piano playing"), (2) head weaving and (3) hindleg abduction. Further, flat motility is scored. Each part of the syndrome is scored as follows: marked effect (score 2), weak syndrome (score 1) and no effect (score 0). The scores of the three observation times are added. Thus the maximum obtainable score for four rats is 24. The effect of the test substance is expressed as per cent inhibition relative to the control group.
The per cent inhibition of the piano playing syndrome is used as the response, and ED50 values are calculated by log-prohibit analysis.

SMILES | ED50 [1] | ED50 [2] | ED50, 8-OH DPAT cue agonism ([1]; s.c.) | ED50, inhibition of 5-MeODMT induced 5-HT syndrome ([2]; s.c.)
COc1ccccc1N1CCN(CCCCC2CNc3ccccc32)CC1 (single isomer, unassigned; (+)) [Compound 7a, (+)-3-[4-[4-(2-methoxyphenyl)-1-piperazinyl]-1-butyl]-1H-2,3-dihydroindole] | > 6.8 µmol/kg | 2.1 µmol/kg | – | –
COc1ccccc1N1CCN(CCCCC2CNc3ccccc32)CC1 (stereo not drawn) [Compound 3a, 3-[4-[4-(2-methoxyphenyl)-1-piperazinyl]-1-butyl]-1H-2,3-dihydroindole] | > 9.2 µmol/kg | 1.9 µmol/kg | – | –
CCOc1ccccc1N1CCN(CCCCC2CNc3ccccc32)CC1 (stereo not drawn) [Compound 3c, 3-[4-[4-(2-ethoxyphenyl)-1-piperazinyl]-1-butyl]-1H-2,3-dihydroindole] | > 26 µmol/kg | 0.48 µmol/kg | – | –

Continued, values first:

ED50 [1] | ED50 [2] | ED50, 8-OH DPAT cue agonism ([1]; s.c.) | ED50, inhibition of 5-MeODMT induced 5-HT syndrome ([2]; s.c.) | SMILES
– | – | > 3.4 µmol/kg | 1.3 µmol/kg | COc1ccccc1N1CCN(CCCCC2CNc3ccccc32)CC1 (single isomer, unassigned; (-)) [Compound 7b, (-)-3-[4-[4-(2-methoxyphenyl)-1-piperazinyl]-1-butyl]-1H-2,3-dihydroindole]
2.7 µmol/kg | 4 µmol/kg | – | – | c1ccc2c(c1)NCC2CCCCN1CCN(c2cccc3c2OCC3)CC1 (stereo not drawn) [Compound 3i, 3-[4-[4-(2,3-dihydro-7-benzofuranyl)-1-piperazinyl]-1-butyl]-1H-2,3-dihydroindole]
> 4.4 µmol/kg | 3.1 µmol/kg | – | – | c1ccc2c(c1)NCC2CCCCN1CCN(c2cccc3c2OCCO3)CC1 (stereo not drawn) [Compound 3j, 3-[4-[4-(1,4-benzodioxan-5-yl)-1-piperazinyl]-1-butyl]-1H-2,3-dihydroindole]
